The target of assay [1] is T1, TDO2 (SW48 cells, high TDO expressing cells) (Homo sapiens, UniProt P48775).
T1 construct: SW48 cells (high TDO expressing cells); endogenous in cells; host or cells: SW48 cells
The experiment in a line: NFK GreenScreen cell assay, inhibition of TDO in SW48 cells. Type of assay: cell-based. The settings on record: read-out: TDO2 Cell Fluor EC50. The source says:
(§1) Cells are counted on a Vi-Cell (Beckman Coulter). […] The final DMSO concentration is 0.5%.

Assay [2] has as its target T2, IDO1 (A172+IFNg cells, high IDO expressing cells) (Homo sapiens, UniProt P14902).
T2 construct: A172+IFNg cells (high IDO expressing cells); endogenous in cells; host or cells: A172 cells induced with 100 ng/ml IFNγ
The experiment in a line: NFK GreenScreen cell assay, inhibition of IDO in A172+IFNg cells. The format is cell-based. Particulars: read-out: IDO cell Fluor EC50.
Text: as §1

SMILES strings stand for the structures. pEC50: −log10 of the molar value.

T2 sequence (P14902 whole entry): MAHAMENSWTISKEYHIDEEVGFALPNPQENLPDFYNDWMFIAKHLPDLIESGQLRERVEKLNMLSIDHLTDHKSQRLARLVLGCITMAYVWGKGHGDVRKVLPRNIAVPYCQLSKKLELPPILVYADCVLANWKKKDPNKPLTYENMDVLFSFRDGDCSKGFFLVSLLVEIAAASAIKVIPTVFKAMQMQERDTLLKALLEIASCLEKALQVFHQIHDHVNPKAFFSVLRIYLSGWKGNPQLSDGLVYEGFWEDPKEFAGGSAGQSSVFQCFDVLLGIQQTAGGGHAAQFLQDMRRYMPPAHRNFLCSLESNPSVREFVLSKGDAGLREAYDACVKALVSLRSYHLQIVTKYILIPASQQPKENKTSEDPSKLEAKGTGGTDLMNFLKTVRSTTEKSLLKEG
T1 sequence (P48775 whole entry): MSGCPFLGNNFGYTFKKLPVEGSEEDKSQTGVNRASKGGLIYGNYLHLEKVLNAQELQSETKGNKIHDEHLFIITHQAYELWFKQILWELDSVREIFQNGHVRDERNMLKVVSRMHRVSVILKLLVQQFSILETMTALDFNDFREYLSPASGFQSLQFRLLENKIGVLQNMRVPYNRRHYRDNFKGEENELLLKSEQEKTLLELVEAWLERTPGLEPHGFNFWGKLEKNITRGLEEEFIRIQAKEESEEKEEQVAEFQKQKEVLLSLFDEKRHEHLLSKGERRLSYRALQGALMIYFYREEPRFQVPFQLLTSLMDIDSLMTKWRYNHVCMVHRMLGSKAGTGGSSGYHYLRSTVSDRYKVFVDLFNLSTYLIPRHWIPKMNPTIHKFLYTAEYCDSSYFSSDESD

By pEC50 is commonly meant the negative decadic logarithm of the EC50, by convention in mol/L. Consider `CC(C)(C)OC(=O)N1[C@@H]2CC[C@H]1C[C@]1(C[C@@H]([C@@H]3c4ccccc4-c4cncn43)[C@@H]1O)C2` (single isomer, unassigned) [Example 12e], for which the negative logarithm of the EC50 (pEC50) in assay [1] is 5.82; in assay [2], 5.41.
With `CC(C)(C)OC(=O)N1CC2(CC[C@@H]([C@H]3c4ccccc4-c4cncn43)[C@@H]2O)C1` (single isomer, unassigned) [Example 3e], the pEC50 in assay [1] was 4.85; in assay [2], 5.15.
In the same order, the values of `CS(=O)(=O)N1CC2CCC(C1)C21CC(C2c3ccccc3-c3cncn32)C1O` (single isomer, unassigned) [compound 70, 3′(5H-imidazo[5,1-a]isoindol-5-yl)-3-(methylsulfonyl)-3-azaspiro[bicyclo[3.2.1]octane-8,1′-cyclobutan]-2′-ol] are 6.85 and 6.82.
Consider `CC(=O)N(C)c1ccc(S(=O)(=O)N2CCC3(CC2)C[C@@H]([C@H]2c4ccccc4-c4cncn42)[C@H]3O)cc1` [compound 34, N-[4-[[3-hydroxy-2-(5H-imidazo[1,5-b]isoindol-5-yl)-7-azaspiro[3.5]nonan-7-yl]sulfonyl]phenyl]-N-methyl-acetamide], for which the values for the negative logarithm of the EC50 (pEC50) in assay [1] and in assay [2] were 6.32 and 7.49, respectively.
With `O=C([C@@H]1CC1(F)F)N1CCC2(CC[C@@H]([C@H]3c4ccccc4-c4cncn43)[C@H]2O)CC1` (single isomer, unassigned) [Example 25a], the values for the pEC50 in assay [1] and in assay [2] were 7.09 and 7.47, respectively.
Consider `Cc1cc(CC(=O)N2CCC3(CC2)CC(C2c4ccccc4-c4cncn42)C3O)on1` (centres unmarked) [compound 63, 1-[3-hydroxy-2-(5H-imidazo[1,5-b]isoindol-5-yl)-7-azaspiro[3.5]nonan-7-yl]-2-(3-methylisoxazol-5-yl)ethanone], for which the pEC50 in assay [1] is 6.51; in assay [2], 6.80.
For `CS(=O)(=O)N1CCC2(CC[C@@H]([C@@H]3c4ccccc4-c4cncn43)[C@@H]2O)CC1` (single isomer, unassigned) [Example 7a], the negative-log EC50 (pEC50) in assay [1] is 6.43; in assay [2], 5.41.
As to `CS(=O)(=O)N1CCC2(CC1)C[C@H]([C@H]1c3ccccc3-c3cncn31)[C@H]2O` (single isomer, unassigned) [Example 6g], the pEC50 in assay [1] is 5.91; in assay [2], 5.33.
For `NS(=O)(=O)N1CCC2(CC[C@H]([C@H]3c4ccccc4-c4cncn43)[C@H]2O)CC1` (single isomer, unassigned) [Example 4b], the pEC50 is 6.29 in assay [1] and 4.80 in assay [2].
On the same counts, the results for `CP(C)(=O)N1CCC2(CC1)C[C@@H]([C@H]1c3ccccc3-c3cncn31)[C@H]2O` (single isomer, unassigned) [Example 15b] are 5.82 and 5.96.
As to `Cc1noc(C)c1S(=O)(=O)N1CCC2(CC1)C[C@@H]([C@H]1c3ccccc3-c3cncn31)[C@H]2O` [compound 31], the negative logarithm of the EC50 (pEC50) in assay [1] is 5.66; in assay [2], 6.82.
With `O=S(=O)(c1c[nH]cn1)N1CCC2(CCC(C3c4ccccc4-c4cncn43)C2O)CC1` (single isomer, unassigned) [compound 59, 8-((1H-imidazol-4-yl)sulfonyl)-2-(5H-imidazo[5,1-a]isoindol-5-yl)-8-azaspiro[4.5]decan-1-ol], the figures for the negative logarithm of the EC50 (pEC50) in assay [1] and in assay [2] were 5.70 and 5.55, respectively.
As to `CC(C)(C)OC(=O)N1CCC2(CC[C@@H]([C@@H]3c4ccccc4-c4cncn43)[C@@H]2O)CC1` (single isomer, unassigned) [Example 2a], the negative logarithm of the EC50 (pEC50) in assay [1] is 4.82; in assay [2], 5.18.
On to `CC(C)(C)OC(=O)N1CC2CCC(C1)C21C[C@@H]([C@H]2c3ccccc3-c3cncn32)[C@H]1O` (single isomer, unassigned) [Example 22b], for which the pEC50 was 5.30 in assay [1] and 4.92 in assay [2].
As to `O=C(CCc1cccnc1)N1CCC2(CC1)CC(C1c3ccccc3-c3cncn31)C2O` (centres unmarked) [compound 33, 1-[3-hydroxy-2-(5H-imidazo[1,5-b]isoindol-5-yl)-7-azaspiro[3.5]nonan-7-yl]-3-(3-pyridyl)propan-1-one], the pEC50 in assay [1] was 6.08; in assay [2], 6.31.
For the compound `CC(C(=O)N1CCC2(CC1)C[C@@H]([C@H]1c3ccccc3-c3cncn31)[C@H]2O)n1cncn1` (some centres unmarked) [compound 41, 1-[3-hydroxy-2-(5H-imidazo[1,5-b]isoindol-5-yl)-7-azaspiro[3.5]nonan-7-yl]-2-(1,2,4-triazol-1-yl)propan-1-one], the pEC50 in assay [1] is 5.47; in assay [2], 5.82.
In the same order, the values of `O=S1(=O)CCC2(CC[C@@H]([C@H]3c4ccccc4-c4cncn43)[C@H]2O)CC1` (relative stereo) [Example 13a, (1R,2S)-1-hydroxy-2-((S)-5H-imidazo[5,1-a]isoindol-5-yl)-8-thiaspiro[4.5]decane 8,8-dioxide] are 6.80 and 6.54.
For `CC(C)(C)OC(=O)N1CC2(CC[C@H]([C@H]3c4ccccc4-c4cncn43)[C@@H]2O)C1` (single isomer, unassigned) [Example 3h], the values for the pEC50 in assay [1] and in assay [2] were 5.92 and 6.70, respectively.
On the same counts, the results for `O=C(C1CCS(=O)(=O)C1)N1CCC2(CC1)C[C@@H]([C@H]1c3ccccc3-c3cncn31)[C@H]2O` (some centres unmarked) [compound 65, (1,1-dioxothiolan-3-yl)-[3-hydroxy-2-(5H-imidazo[1,5-b]isoindol-5-yl)-7-azaspiro[3.5]nonan-7-yl]methanone] are 5.05 and 5.20.
Take `CC(=O)N1CCC2(CC1)C[C@@H]([C@H]1c3ccccc3-c3cncn31)[C@H]2O` [compound 56, 1-[3-hydroxy-2-(5H-imidazo[1,5-b]isoindol-5-yl)-7-azaspiro[3.5]nonan-7-yl]ethanone]: the pEC50 was 6.10 in assay [1] and 6.18 in assay [2].
Take `O=C(OCC(F)F)N1CCC2(CCC(C3c4ccccc4-c4cncn43)C2O)CC1` (single isomer, unassigned) [compound 60, 2,2-difluoroethyl 1-hydroxy-2-(5H-imidazo[5,1-a]isoindol-5-yl)-8-azaspiro[4.5]decane-8-carboxylate]: the negative logarithm of the EC50 (pEC50) in assay [1] is 7.25; in assay [2], 7.40.
In the case of `Cn1cc(S(=O)(=O)N2CCC3(CC2)CC(C2c4ccccc4-c4cncn42)C3O)cn1` (centres unmarked) [compound 26, 2-(5H-imidazo[1,5-b]isoindol-5-yl)-7-(1-methylpyrazol-4-yl)sulfonyl-7-azaspiro[3.5]nonan-3-ol], the negative logarithm of the EC50 (pEC50) in assay [1] is 6.66; in assay [2], 6.96.
On to `CC(C)(C)OC(=O)N[C@H]1CC[C@]2(CC1)C[C@@H]([C@@H]1c3ccccc3-c3cncn31)[C@@H]2O` (single isomer, unassigned) [Example 24h], for which the pEC50 is 4.80 in assay [1] and 5.27 in assay [2].
As to `CN1CCC(C(=O)N2CCC3(CC2)CC(C2c4ccccc4-c4cncn42)C3O)CC1=O` (centres unmarked) [compound 40, 4-[3-hydroxy-2-(5H-imidazo[1,5-b]isoindol-5-yl)-7-azaspiro[3.5]nonane-7-carbonyl]-1-methyl-piperidin-2-one], the figures for the negative-log EC50 (pEC50) in assay [1] and in assay [2] were 5.04 and 5.15, respectively.
As for `O=S(=O)(CF)N1CCC2(CC1)C[C@H]([C@@H]1c3ccccc3-c3cncn31)[C@@H]2O` (single isomer, unassigned) [Example 8a], the pEC50 was 4.82 in assay [1] and 4.77 in assay [2].
